Read-outs that look alike come from different tables or passages of the source.
What was measured:
[1] = system: hERG (WT); conditions: cited from earlier work
[2] = system: hERG (WT); assay: Literature IhERG block, WT hERG in Xenopus oocytes; assay type: cell-based; conditions: human, Xenopus oocytes expressing WT hERG; Oocyte, room temperature; estimated from single dose data with Hill equation, h = 1; read-out: WT IC50 (estimated)
[3] = system: hERG (WT); conditions: cited from earlier work; remark: listed apart in the source
[4] = biological target: Y652A hERG (Homo sapiens, UniProt Q12809, Y652A); conditions: cited from earlier work
[5] = biological target: F656A hERG (Homo sapiens, UniProt Q12809, F656A); conditions: cited from earlier work
[6] = read-out: WT IC50, Oocyte, room temperature

Sequence of Y652A hERG (Q12809 whole entry Y652A): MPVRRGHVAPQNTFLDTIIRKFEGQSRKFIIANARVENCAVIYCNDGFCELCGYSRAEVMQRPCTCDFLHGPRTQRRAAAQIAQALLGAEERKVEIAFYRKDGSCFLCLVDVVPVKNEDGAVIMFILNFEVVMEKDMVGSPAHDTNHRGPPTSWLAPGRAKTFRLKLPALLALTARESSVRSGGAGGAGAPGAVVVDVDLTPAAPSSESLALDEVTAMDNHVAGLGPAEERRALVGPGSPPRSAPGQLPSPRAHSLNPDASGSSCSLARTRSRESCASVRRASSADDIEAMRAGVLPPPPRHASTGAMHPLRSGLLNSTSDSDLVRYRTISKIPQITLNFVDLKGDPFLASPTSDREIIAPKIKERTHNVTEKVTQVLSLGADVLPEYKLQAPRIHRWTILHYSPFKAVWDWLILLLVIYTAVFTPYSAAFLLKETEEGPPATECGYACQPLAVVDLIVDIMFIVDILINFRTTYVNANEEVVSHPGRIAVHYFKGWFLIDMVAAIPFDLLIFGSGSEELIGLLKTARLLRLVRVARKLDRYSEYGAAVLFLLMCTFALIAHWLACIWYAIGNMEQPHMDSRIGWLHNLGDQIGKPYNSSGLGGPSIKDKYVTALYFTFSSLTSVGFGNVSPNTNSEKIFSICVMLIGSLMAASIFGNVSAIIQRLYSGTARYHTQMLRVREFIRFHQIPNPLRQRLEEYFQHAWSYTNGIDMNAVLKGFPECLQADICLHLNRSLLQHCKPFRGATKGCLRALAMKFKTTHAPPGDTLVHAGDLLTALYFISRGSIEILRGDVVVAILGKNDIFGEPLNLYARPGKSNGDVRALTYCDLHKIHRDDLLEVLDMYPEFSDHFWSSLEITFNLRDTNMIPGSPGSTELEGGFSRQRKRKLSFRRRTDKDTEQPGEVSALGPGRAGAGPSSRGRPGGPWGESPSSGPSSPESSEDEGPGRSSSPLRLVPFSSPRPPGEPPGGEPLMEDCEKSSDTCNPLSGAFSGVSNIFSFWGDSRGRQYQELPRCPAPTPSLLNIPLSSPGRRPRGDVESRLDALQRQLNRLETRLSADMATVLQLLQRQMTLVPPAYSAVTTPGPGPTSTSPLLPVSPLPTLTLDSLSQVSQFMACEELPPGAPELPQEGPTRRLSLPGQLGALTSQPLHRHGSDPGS
Sequence of F656A hERG (Q12809 whole entry F656A): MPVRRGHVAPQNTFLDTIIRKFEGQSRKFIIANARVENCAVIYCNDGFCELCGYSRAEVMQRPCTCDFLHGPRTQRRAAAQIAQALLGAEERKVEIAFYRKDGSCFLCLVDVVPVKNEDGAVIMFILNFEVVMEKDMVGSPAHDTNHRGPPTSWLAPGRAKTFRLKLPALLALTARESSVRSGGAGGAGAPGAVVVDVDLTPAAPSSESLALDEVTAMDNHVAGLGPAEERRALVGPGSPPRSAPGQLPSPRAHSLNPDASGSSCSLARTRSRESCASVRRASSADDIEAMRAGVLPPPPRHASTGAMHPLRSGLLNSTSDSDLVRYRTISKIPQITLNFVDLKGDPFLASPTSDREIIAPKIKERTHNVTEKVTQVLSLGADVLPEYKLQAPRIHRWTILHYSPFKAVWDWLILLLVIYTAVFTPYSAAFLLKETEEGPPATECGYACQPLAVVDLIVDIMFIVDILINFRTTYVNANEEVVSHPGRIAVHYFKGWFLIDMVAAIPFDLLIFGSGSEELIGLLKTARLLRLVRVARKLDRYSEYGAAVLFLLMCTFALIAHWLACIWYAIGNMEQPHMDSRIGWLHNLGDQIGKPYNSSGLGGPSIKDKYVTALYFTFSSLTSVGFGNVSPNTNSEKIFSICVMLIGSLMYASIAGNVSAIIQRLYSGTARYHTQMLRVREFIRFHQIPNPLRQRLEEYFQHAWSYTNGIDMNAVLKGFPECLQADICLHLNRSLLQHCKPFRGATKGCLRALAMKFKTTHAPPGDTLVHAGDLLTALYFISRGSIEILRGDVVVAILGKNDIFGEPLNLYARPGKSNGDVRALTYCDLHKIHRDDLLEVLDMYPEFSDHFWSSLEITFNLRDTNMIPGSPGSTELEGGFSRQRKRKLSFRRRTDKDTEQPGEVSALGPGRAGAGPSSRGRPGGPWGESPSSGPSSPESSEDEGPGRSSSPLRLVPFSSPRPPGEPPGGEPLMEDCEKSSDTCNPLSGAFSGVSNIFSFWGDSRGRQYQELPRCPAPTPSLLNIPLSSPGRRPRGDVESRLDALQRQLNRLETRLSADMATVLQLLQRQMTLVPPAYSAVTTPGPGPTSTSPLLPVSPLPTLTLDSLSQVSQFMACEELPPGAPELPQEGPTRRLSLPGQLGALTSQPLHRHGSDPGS

SMILES: CCCCCCC[N+](CC)(CC)CCCCc1ccc(Cl)cc1 [Clofilium]
- IC50 [1, 6]: 30 nM

SMILES: O=C1Cc2cc(CCN3CCN(c4nsc5ccccc45)CC3)c(Cl)cc2N1 [Ziprasidone]
- IC50 ([3]; HEK293, 37 °C, read-out: WT IC50): 120 nM
- IC50 [1]: 2800 nM
- IC50 fold increase (mutant IC50/WT IC50), Y652A [4]: 140 fold
- IC50 fold increase (mutant IC50/WT IC50), F656A [5]: 357 fold

SMILES: CCCCc1oc2ccccc2c1C(=O)c1cc(I)c(OCCNCC)c(I)c1 [desethyl-amiodarone]
- IC50 ([3]; metabolite DEA, read-out: IhERG IC50): ~160 nM
